Melting point data for 77 compounds are collected here from a melting point compilation (Tetko et al.).

Each structure is given as a SMILES string.

By melting point is commonly meant the temperature, or range, at which the solid turns liquid. As for `O=C(Cl)c1ccc(-c2ccccc2)s1`, the melting point fell in the range of 76 to 80 °C.
The figure for `NC1=NN(c2ccccc2)C(=O)C1` is 210 to 215 °C; for `O=[N+]([O-])c1cc[nH]n1` it is 173 to 175 °C; for `CCOC(=O)C(C#N)=Cc1ccc(-c2ccccc2OC)o1` it is 120 to 121 °C.
`CCCCOC(N)=O` returned a melting point of 51 to 56 °C.
The figure for `Cc1ccc(S(=O)(=O)Nc2ccc(Cl)cc2)cc1` is 120 °C; for `O=S(=O)(O)c1cccc2cnccc12` it is 300 °C; for `O=C(NC(Cc1ccc(Br)s1)C(=O)O)OCC1c2ccccc2-c2ccccc21` (configuration not stated) it is 158 °C.
The figure for `Cc1cccc(N2C(=O)C3ON=C(C(=O)c4ccco4)C3C2=O)c1` (configuration not stated) is 129 °C; for `c1ccc(CP(c2ccccc2)c2ccccc2)cc1` it is 75 °C.
The figure for `C/C(C#Cc1ccccc1)=C/C(C)=N/Nc1ccc([N+](=O)[O-])cc1[N+](=O)[O-]` is 210 to 212 °C.
Turning to `CCOC(=O)c1ccc(NC(=O)C(F)(F)C(F)(F)C(F)(F)C(F)(F)C(F)(F)C(F)(F)C(F)(F)C(F)(F)F)cc1`, the melting point was 135 to 137 °C.
The figure for `CC(C)(C)c1cc(C(=S)NC2CCCCC2)cc(C(C)(C)C)c1O` is 217 to 218 °C.
The figure for `CCCCC(O)C(=O)O` (configuration not stated) is 61 °C; for `N#Cc1c(Cl)ccc([N+](=O)[O-])c1Cl` it is 108 °C.
The figure for `N#CCS(=O)(=O)c1ccc(Cl)cc1` is 171 °C; for `O=C1c2ccccc2C(=O)C1c1ccc(Br)cc1` it is 138 °C; for `COC(=O)[C@H](CC(=O)O)Cc1ccc2ccccc2c1` it is 64.7 °C.
Turning to `Cn1cnc2ccccc21`, the melting point was determined as 61 °C.
The figure for `COc1cc(N)c(C(=O)O)cc1OC` is 155 to 160 °C.
The figure for `CC(C)(C)c1cc(N)c(O)c(C(C)(C)C)c1` is 161 °C.
As for `c1ccc(OCc2ccc(CCCN3CCOCC3)cc2)cc1`, the melting point came to 52.5 °C.
The figure for `CCCCCCCC(=O)CCC` is 4.5 °C; for `O=C(CCl)c1ccc(O)c(O)c1` it is 174 °C.
On to `CN(C(=O)C(Cl)Cl)c1ccc(O)cc1`, for which the melting point amounted to 175 °C.
Regarding `O=[N+]([O-])c1ccc(Nc2ccc(O)cc2)c([N+](=O)[O-])c1`, the melting point was 194 °C.
The figure for `CC(=O)Nc1ccc(Br)cc1C` is 160 to 163 °C.
The figure for `OCc1ccc(N2CCCCC2)cc1` is 148 to 149 °C; for `OC1CCC(O)C1` (configuration not stated) it is 40 °C.
The figure for `O=C(O)c1ccc(O)cc1C(=O)O` is 191 to 194 °C.
Regarding `CCCCCCCCCCCCCC(C)CC` (configuration not stated), the melting point was -15 °C.
The figure for `COc1ccc(N2C(=O)C3ON=C(C(=O)c4ccc(C)cc4)C3C2=O)cc1` (configuration not stated) is 126 °C.
The figure for `Nc1c(O)cc(S(=O)(=O)O)c2ccccc12` is 295 °C; for `COc1ccc(Br)c2c1C(=NNc1ccc([N+](=O)[O-])cc1[N+](=O)[O-])C2` it is 288 to 289 °C.
The figure for `CSc1ccccc1/N=C/c1cc(C(C)(C)C)cc(C(C)(C)C)c1O` is 135 °C; for `O=C(O)c1cc(Cl)nnc1Cl` it is 139 °C; for `Cc1cc(Br)ccc1S(=O)(=O)Cl` it is 65 to 67 °C.
Compound `O=Cc1csc(-c2cccc(Cl)c2)n1` returned a melting point of 103 to 104 °C.
The figure for `O=C1CCC/C1=C1\C(=O)Nc2ccccc21` is 267 °C; for `Cc1sc(N)nc1-c1ccccc1` it is 110 °C; for `NNc1ccc(F)c(Cl)c1` it is 74 °C.
The figure for `O=C(CCC1=NC=NC1)NCCc1c[nH]cn1` is 164 °C.
The figure for `OCCCCCCCCCCCl` is 12.5 °C; for `CC1=C(c2ccccc2)C(=O)N(C(C)(C)c2cc(Cl)cc(Cl)c2)CO1` it is 150 °C; for `C=C(C)C(=O)OC1CC2CCC1(C)C2(C)C` (configuration not stated) it is -60 °C.
`O=[N+]([O-])c1ccc(Cc2ccccn2)c([N+](=O)[O-])c1` yielded a melting point of 92 °C.
`O=C(O)c1cccc(OC(F)(F)C(F)F)c1` yielded a melting point of 127 to 128 °C.
As to `C=Cc1c(Cl)cccc1Cl`, the melting point amounted to 89 °C.
With `FC(F)(F)c1cccc(C(c2ccccc2)(c2ccccc2)n2cncn2)c1`, the melting point came to 132 °C.
The figure for `O=C(O)C1OC(OCC(Cl)(Cl)Cl)C(O)C(O)C1O` (configuration not stated) is 142 °C; for `N#Cc1cccc2c(NC(=O)c3ccccc3)cccc12` it is 211 to 212 °C.
For `C=C(C)C=C(C)C`, the melting point was -114 °C.
The figure for `N#Cc1cc(O)cc(O)c1` is 188 °C; for `Cc1sc(-c2cccnc2)nc1-c1ccccc1` it is 80 °C.
`Cc1cc2c(c(=O)n1Cc1ccccc1)C(c1ccccc1)C(C#N)=C(N)O2` (configuration not stated) had a melting point of 275 to 277 °C.
The figure for `CC(C)(O)C(=O)c1ccc(OCCO)cc1` is 89 °C.
The figure for `O=C(C1CCNCC1)N1CCCCCC1` is 41 to 47 °C; for `O=[N+]([O-])c1ccc(OCCCBr)cc1` it is 56 to 58 °C; for `COc1cc(C)c2c(c1)CCC(=Cc1ccccc1)C2=O` it is 96 to 97 °C.
The figure for `O=C1OC2(Cc3ccccc31)C(=O)c1ccccc1C2=O` is 205 °C.
Compound `COc1ccc2[nH]cc(CCN(C(C)C)C(C)C)c2c1` gave a melting point of 181 °C.
The figure for `COc1cccc(OC)c1SC` is 79 to 80 °C; for `O=C(O)C=CC(=O)Nc1cccc(Cl)c1` it is 198 °C.
For `CC(=O)CC[C@H]1[C@@H](C#N)[C@H](C(C)C)CC[C@@]1(C)OC(C)=O`, the melting point lay within 106 to 109 °C.
The figure for `N[C@@H](CCC(=O)N[C@@H](CCC(=O)O)C(=O)O)C(=O)O` is 179 to 182 °C; for `Cc1ccc2c(c1C)CCC1C2CCC2CC(O)CCC21C` (configuration not stated) it is 188 °C; for `C(COCCOCC1CO1)OCCOCC1CO1` (configuration not stated) it is -13 °C.
Compound `Nc1ccc(/C(=C\c2ccccc2N)C(=O)O)cc1` yielded a melting point of 186 °C.
On to `CC(C)(C)c1cc(Br)cc(C(C)(C)C)c1O`, for which the melting point came out at 83 °C.
As to `COC(=O)Nc1nc2ccc(C(=O)c3ccccc3)cc2[nH]1`, the melting point was determined as 288 °C.
The figure for `CN(CC(=O)O)CC(=O)O` is 218 to 221 °C.
The figure for `CCOc1cc(C(=S)N2CCCCC2)ccc1O` is 123 °C; for `O=[N+]([O-])c1cc([N+](=O)[O-])c(/C=C/c2cccc3c2OCO3)cc1/C=C/c1cccc2c1OCO2` it is 215 °C.
The figure for `BrCC(Br)c1cccc(C(Br)CBr)c1` (configuration not stated) is 65 °C; for `O=C(O)c1cn(C2CCCCC2)c2ccccc2c1=O` it is 237 to 238 °C; for `O=C1C=C(NCNc2ccccn2)C(=O)c2ccccc21` it is 134 to 136 °C.
Take `CN(CCO)c1cc(C(F)(F)F)nc2ccccc12`: the melting point was 90.5 to 92.5 °C.
